Data: the NIST ThermoML archive (doi:10.1021/je700145e)

Conditions: Liquid

CCCCCCCCCCO [decan-1-ol]
Conditions	mass density [kg/m3]
313.12 K, 1025 kPa	816.79
313.12 K, 2002 kPa	817.46
313.12 K, 2995 kPa	817.98
313.12 K, 4013 kPa	818.58
313.12 K, 5004 kPa	819.21
313.12 K, 5994 kPa	819.86
313.12 K, 7003 kPa	820.47
313.12 K, 7997 kPa	821.19
313.12 K, 9000 kPa	821.73
313.12 K, 9994 kPa	822.38
313.12 K, 10995 kPa	823.02
313.12 K, 11995 kPa	823.67
313.12 K, 12997 kPa	824.2
313.12 K, 13996 kPa	824.82
313.12 K, 14998 kPa	825.42
313.12 K, 15990 kPa	826.01
313.12 K, 16995 kPa	826.61
313.12 K, 17986 kPa	827.14
313.12 K, 18992 kPa	827.76
313.12 K, 19993 kPa	828.31
313.12 K, 20999 kPa	828.88
313.12 K, 21509 kPa	829.19
323.09 K, 1002 kPa	809.87
323.09 K, 2011 kPa	810.59
323.09 K, 3019 kPa	811.21
323.09 K, 4014 kPa	811.83
323.09 K, 5006 kPa	812.47
323.09 K, 6012 kPa	813.18
323.09 K, 7002 kPa	813.8
323.09 K, 8003 kPa	814.42
323.09 K, 9008 kPa	815.1
323.09 K, 10006 kPa	815.7
323.09 K, 11000 kPa	816.38
323.09 K, 12002 kPa	816.97
323.09 K, 13002 kPa	817.64
323.09 K, 14000 kPa	818.21
323.09 K, 15017 kPa	818.84
323.09 K, 16003 kPa	819.4
323.09 K, 17015 kPa	820.02
323.09 K, 18006 kPa	820.61
323.09 K, 19007 kPa	821.24
323.09 K, 20007 kPa	821.84
323.09 K, 21002 kPa	822.41
323.09 K, 22014 kPa	823.01
333.04 K, 1046 kPa	802.82
333.04 K, 2018 kPa	803.5
333.04 K, 3008 kPa	804.21
333.04 K, 4012 kPa	804.88
333.04 K, 5059 kPa	805.62
333.04 K, 6016 kPa	806.29
333.04 K, 7022 kPa	807
333.04 K, 8014 kPa	807.64
333.04 K, 9015 kPa	808.34
333.04 K, 10015 kPa	808.97
333.04 K, 11019 kPa	809.64
333.04 K, 12007 kPa	810.31
333.04 K, 13019 kPa	810.96
333.04 K, 14019 kPa	811.6
333.04 K, 15014 kPa	812.24
333.04 K, 16021 kPa	812.88
333.04 K, 17026 kPa	813.5
333.04 K, 18023 kPa	814.11
333.04 K, 19018 kPa	814.72
333.04 K, 20025 kPa	815.35
333.04 K, 21020 kPa	815.94
333.04 K, 22032 kPa	816.58
342.98 K, 1058 kPa	795.63
342.98 K, 2045 kPa	796.4
342.98 K, 3022 kPa	797.12
342.98 K, 4035 kPa	797.9
342.98 K, 5028 kPa	798.63
342.98 K, 6030 kPa	799.37
342.98 K, 7023 kPa	800.07
342.98 K, 8028 kPa	800.78
342.98 K, 9062 kPa	801.51
342.98 K, 10035 kPa	802.22
342.98 K, 11029 kPa	802.92
342.98 K, 12064 kPa	803.64
342.98 K, 13023 kPa	804.31
342.98 K, 14042 kPa	805
342.98 K, 15022 kPa	805.66
342.98 K, 16022 kPa	806.36
342.98 K, 17021 kPa	807
342.98 K, 18034 kPa	807.7
342.98 K, 19025 kPa	808.35
342.98 K, 20038 kPa	808.98
342.98 K, 21018 kPa	809.62
342.98 K, 22035 kPa	810.28
352.86 K, 1069 kPa	788.44
352.86 K, 2043 kPa	789.24
352.86 K, 3040 kPa	790.04
352.86 K, 4048 kPa	790.78
352.86 K, 5038 kPa	791.59
352.86 K, 6043 kPa	792.34
352.86 K, 7038 kPa	793.09
352.86 K, 8039 kPa	793.84
352.86 K, 9040 kPa	794.57
352.86 K, 10038 kPa	795.32
352.86 K, 11032 kPa	796.04
352.86 K, 12032 kPa	796.74
352.86 K, 13040 kPa	797.47
352.86 K, 14046 kPa	798.18
352.86 K, 15043 kPa	798.89
352.86 K, 16037 kPa	799.59
352.86 K, 17040 kPa	800.26
352.86 K, 18046 kPa	800.95
352.86 K, 19040 kPa	801.63
352.86 K, 20064 kPa	802.32
352.86 K, 21048 kPa	802.96
352.86 K, 22049 kPa	803.62
362.89 K, 1077 kPa	781.02
362.89 K, 2027 kPa	781.83
362.89 K, 3089 kPa	782.69
362.89 K, 4047 kPa	783.49
362.89 K, 5061 kPa	784.29
362.89 K, 6060 kPa	785.12
362.89 K, 7041 kPa	785.91
362.89 K, 8049 kPa	786.7
362.89 K, 9049 kPa	787.47
362.89 K, 10052 kPa	788.25
362.89 K, 11045 kPa	788.99
362.89 K, 12044 kPa	789.75
362.89 K, 13054 kPa	790.54
362.89 K, 14053 kPa	791.25
362.89 K, 15052 kPa	792
362.89 K, 16056 kPa	792.77
362.89 K, 17063 kPa	793.47
362.89 K, 18062 kPa	794.2
362.89 K, 19062 kPa	794.91
362.89 K, 20068 kPa	795.64
362.89 K, 21072 kPa	796.35
362.89 K, 22063 kPa	797.03

CCCCCCCCO [octan-1-ol]
Conditions	mass density [kg/m3]
313.14 K, 1004 kPa	811.26
313.14 K, 2019 kPa	811.95
313.14 K, 3000 kPa	812.59
313.14 K, 4020 kPa	813.22
313.14 K, 4995 kPa	813.89
313.14 K, 6000 kPa	814.53
313.14 K, 7007 kPa	815.21
313.14 K, 8012 kPa	815.83
313.14 K, 8994 kPa	816.51
313.14 K, 10014 kPa	817.19
313.14 K, 11007 kPa	817.79
313.14 K, 12000 kPa	818.42
313.14 K, 12997 kPa	819.05
313.14 K, 14001 kPa	819.67
313.14 K, 14997 kPa	820.27
313.14 K, 16002 kPa	820.89
313.14 K, 17001 kPa	821.48
313.14 K, 17997 kPa	822.1
313.14 K, 19004 kPa	822.69
313.14 K, 20007 kPa	823.28
313.14 K, 21004 kPa	823.86
323.09 K, 1007 kPa	804.26
323.09 K, 2016 kPa	804.97
323.09 K, 3019 kPa	805.7
323.09 K, 4025 kPa	806.4
323.09 K, 5012 kPa	807.07
323.09 K, 6093 kPa	807.82
323.09 K, 7143 kPa	808.56
323.09 K, 8009 kPa	809.12
323.09 K, 8989 kPa	809.77
323.09 K, 10014 kPa	810.47
323.09 K, 11031 kPa	811.14
323.09 K, 12010 kPa	811.82
323.09 K, 13005 kPa	812.44
323.09 K, 14003 kPa	813.11
323.09 K, 15012 kPa	813.76
323.09 K, 16009 kPa	814.4
323.09 K, 17005 kPa	815.04
323.09 K, 18013 kPa	815.66
323.09 K, 19003 kPa	816.26
323.09 K, 20025 kPa	816.9
323.09 K, 21081 kPa	817.56
323.09 K, 22009 kPa	818.09
333.05 K, 1038 kPa	797.31
333.05 K, 2029 kPa	798.03
333.05 K, 2999 kPa	798.76
333.05 K, 4033 kPa	799.51
333.05 K, 5020 kPa	800.25
333.05 K, 6014 kPa	800.97
333.05 K, 7029 kPa	801.69
333.05 K, 8011 kPa	802.44
333.05 K, 9005 kPa	803.11
333.05 K, 10022 kPa	803.83
333.05 K, 11011 kPa	804.55
333.05 K, 12021 kPa	805.23
333.05 K, 13022 kPa	805.92
333.05 K, 14031 kPa	806.61
333.05 K, 15010 kPa	807.28
333.05 K, 16023 kPa	807.92
333.05 K, 17012 kPa	808.59
333.05 K, 18035 kPa	809.23
333.05 K, 19009 kPa	809.87
333.05 K, 20002 kPa	810.51
333.05 K, 21011 kPa	811.15
333.05 K, 22019 kPa	811.82
343.03 K, 1049 kPa	790.6
343.03 K, 2003 kPa	791.16
343.03 K, 2981 kPa	791.93
343.03 K, 4017 kPa	792.68
343.03 K, 5000 kPa	793.37
343.03 K, 6005 kPa	794.05
343.03 K, 7018 kPa	794.88
343.03 K, 8104 kPa	795.68
343.03 K, 9014 kPa	796.44
343.03 K, 10022 kPa	797.1
343.03 K, 11028 kPa	797.87
343.03 K, 11997 kPa	798.58
343.03 K, 13030 kPa	799.3
343.03 K, 14005 kPa	800
343.03 K, 15002 kPa	800.66
343.03 K, 16032 kPa	801.38
343.03 K, 17016 kPa	801.99
343.03 K, 18012 kPa	802.68
343.03 K, 19005 kPa	803.29
343.03 K, 20018 kPa	803.98
343.03 K, 21014 kPa	804.61
343.03 K, 22004 kPa	805.23
352.89 K, 1023 kPa	782.71
352.89 K, 2011 kPa	783.55
352.89 K, 3032 kPa	784.42
352.89 K, 4022 kPa	785.42
352.89 K, 5005 kPa	786.18
352.89 K, 6026 kPa	787.13
352.89 K, 7003 kPa	787.9
352.89 K, 8016 kPa	788.71
352.89 K, 9007 kPa	789.47
352.89 K, 10003 kPa	790.22
352.89 K, 11022 kPa	791
352.89 K, 12170 kPa	791.78
352.89 K, 13015 kPa	792.51
352.89 K, 14018 kPa	793.24
352.89 K, 15009 kPa	794
352.89 K, 16023 kPa	794.74
352.89 K, 17010 kPa	795.48
352.89 K, 18002 kPa	796.16
352.89 K, 19029 kPa	796.9
352.89 K, 20046 kPa	797.63
352.89 K, 21023 kPa	798.3
362.77 K, 1051 kPa	775.67
362.77 K, 2025 kPa	776.41
362.77 K, 3016 kPa	777.19
362.77 K, 4009 kPa	778.05
362.77 K, 4974 kPa	778.77
362.77 K, 6005 kPa	779.51
362.77 K, 7006 kPa	780.3
362.77 K, 8011 kPa	780.95
362.77 K, 9008 kPa	781.79
362.77 K, 10034 kPa	782.62
362.77 K, 11013 kPa	783.32
362.77 K, 11987 kPa	784.03
362.77 K, 13015 kPa	784.77
362.77 K, 14006 kPa	785.51
362.77 K, 14997 kPa	786.3
362.77 K, 16001 kPa	787.03
362.77 K, 17013 kPa	787.79
362.77 K, 17997 kPa	788.55
362.77 K, 19000 kPa	789.33
362.77 K, 20023 kPa	790.04
362.77 K, 21004 kPa	790.83
